In brackets after ≈: the same amount, converted by molar mass. Where two headings read alike, the source gives them in different places.
What was measured:
[1] = test system: NFF (ATCC PCS-201) human neonatal foreskin fibroblast cells; assay: Cytotoxicity resazurin assay, NFF cells; format: cell-based; details: for IC50: Homo sapiens, 96 h, read-out: IC50 NFF
Protocol: (§1) 12. Bioactivity screening.
(§2) Purified metabolites were dissolved in DMSO to create stock solutions of 10,000 µg/mL. An aliquot from each stock solution was transferred to the first well of Rows B to G on a 96-well microtitre plate and then serially diluted two-fold with DMSO across the 12 wells of the plate to achieve a 2,048-fold concentration gradient. Bioassay medium was added to an aliquot of each diluted solution to achieve a 100-fold dilution in the final bioassay. This […]
(§3) 0.1 µg/mL in 2% DMSO for yeasts. Row A served as a control with no test compound (indicating no inhibition), and Row H was left uninoculated (serving as a control for complete inhibition). […]
(§4) MIC endpoints were determined visually. Absorbance was measured using a Multiskan Skyhigh […]
as §4
(§5) NS-1 (ATCC TIB-18) mouse myeloma and NFF (ATCC PCS -201) human neonatal foreskin fibroblast cells were each inoculated in 96-well microtitre plates (190 µL) at 50,000 cells/mL in DMEM (Dulbecco's Modified Eagle Medium + 10% fetal bovine serum (FBS) + 1% penicillin/streptomycin (10,000 U/mL / 10,000 µg/mL, Life Technologies Cat. No. 15140122), together with resazurin (250 µg/mL; 10 µL) and incubated in 37 °C (5% CO2) incubator. The plates were incubated for 96 h during which time the positive control wells change colour from a blue to pink colour. The absorbance of each well was measured using Multiskan Skyhigh Microplate Spectrophotometer (Thermofisher Scientific) at 605 nm. Sparsomycin was used as a control. The IC50 values were determined using a sigmoidal dose-response model with variable slope in GraphPad Prism 8.

[2] = test system: Saccharomyces cerevisiae (ATCC 9763); assay: Antifungal EuTOX bioassay, S. cerevisiae; format: cell-based; details: S. cerevisiae ATCC 9763, 48 h; for MIC: Saccharomyces cerevisiae, ATCC9763, read-out: Minimum inhibitory concentration (MIC) S. cerevisiae
Protocol: as §1, §2, §3, §4
Saccharomyces cerevisiae (ATCC 9763) was used as indicator species for antifungal activity, employing the EuTOX bioassay platform. A yeast suspension (50 mL in a 250 mL flask) was prepared in 1% malt extract broth by cultivating it for 24 h at 250 rpm and 24 °C. The suspension was diluted to absorbances of 0.03 absorbance units per mL and 30 µL were added to the wells of a 96-well microtitre plate containing the test compounds dispersed in 100 µL of malt extract agar with bromocresol green (50 µg/mL). The plates were incubated at 28 °C for 48 h, during which the positive control wells changed colour from blue to yellow. Blasticidin S HCl was used

[3] = test system: MRSA (ATCC 33592); assay: Antibacterial ProTOX bioassay, MRSA; format: cell-based, methicillin-resistant S. aureus; details: MRSA ATCC 33592, 48 h, 28 °C; for MIC: Staphylococcus aureus, read-out: Minimum inhibitory concentration (MIC) MRSA
Protocol: as §1, §2
(§6) 0.1 µg/mL in 2% DMSO for yeasts. Row A served as a control with no test compound (indicating no inhibition), and Row H was left uninoculated (serving as a control for complete inhibition).
(§7) B. subtilis (ATCC 6633), S. aureus (ATCC 25923) and MRSA (ATCC 33592) were used as indicator species for antibacterial activity, employing the ProTOX bioassay platform. A bacterial suspension (50 mL in a 250 mL flask) was prepared in nutrient media by cultivating it for 24 h at 250 rpm and 28 °C. The suspension was diluted to an absorbance of 0.01 absorbance units per mL, and 10 µL aliquots were added to the wells of a 96-well microtitre plate containing the test compounds dispersed in 190 µL of nutrient broth (Amyl) with 10 µL resazurin (12.5 µg/mL). The plates were incubated at 28 °C for 48 h, during which the positive control wells changed colour from blue to light pink. Tetracycline was employed as a control for B. subtilis, while ampicillin was used for S. aureus and MRSA. MIC endpoints were determined visually. Absorbance was measured using a Multiskan Skyhigh Microplate Spectrophotometer (Thermo Fisher Scientific) at 605 nm.

[4] = test system: fatty acid synthase II (FAS II); details: cited from earlier work
[5] = test system: S. aureus (ATCC 25923); assay: Antibacterial ProTOX bioassay, S. aureus; format: cell-based; details: Staphylococcus aureus, ATCC25923; S. aureus ATCC 25923, 48 h, 28 °C; read-out: Minimum inhibitory concentration (MIC) S. aureus
Protocol: as §1, §2, §6, §7

[6] = test system: NS-1 (ATCC TIB-18) mouse myeloma cells; assay: Cytotoxicity resazurin assay, NS-1 cells; format: cell-based; details: for IC50: read-out: IC50 NS-1; for cytotoxicity against NS-1 cells (in words): mouse myeloma NS-1
Protocol: as §1, §2, §3, §4, §4, §5

[7] = test system: B. subtilis (ATCC 6633); assay: Antibacterial ProTOX bioassay, B. subtilis; format: cell-based; details: Bacillus subtilis, ATCC6633; B. subtilis ATCC 6633, 48 h, 28 °C; read-out: Minimum inhibitory concentration (MIC) B. subtilis
Protocol: as §1, §2, §6, §7

[8] = test system: Saccharomyces cerevisiae (ATCC 9763); details: previously reported; cited from earlier work
[9] = test system: methicillin-resistant S. aureus (MRSA); set-up: method as in PMID 19952429; details: cited from earlier work
[10] = neonatal foreskin fibroblast NFF
[11] = NS1, mouse myeloma NS-1 ATCC TIB-18, 96 h

Compound	IC50 [1, 10] [µg/mL]	MIC [2] [µg/mL]	MIC [3] [µg/mL]	FAS II inhibitory activity [4]	MIC [5] [µg/mL]	IC50 [6, 11] [µg/mL]	MIC [7] [µg/mL]	Minimum inhibitory concentration (MIC) MRSA [3] [µg/mL]	IC50 ([1]; Fibroblast) [µg/mL]	IC50 ([6]; Mus musculus, NS1, 96 h) [µg/mL]	cytotoxicity against NFF cells (in words) [1]	cytotoxicity against NS-1 cells (in words) [6]	antifungal activity against S. cerevisiae (in words) [8]	antibacterial activity against MRSA [9]	Minimum inhibitory concentration (MIC) S. cerevisiae [2] [µg/mL]
CCCCCCCCCCCCCCCc1cc(O[C@@H]2O[C@H](CO)[C@H](O)[C@H](O)[C@H]2O)cc(O)c1C(=O)OC [1c, aquastatin C]	> 100	> 200	> 100	do not demonstrate	> 100	> 100	> 100								
CC1(C)S[C@@H]2[C@H](NC(=O)[C@H](N)c3ccccc3)C(=O)N2[C@H]1C(=O)O [ampicillin, reference compound]			> 100		3.1 (≈ 8.87 µM)			>100							
CSC[S@+]([O-])C[C@H](CO)NC(=O)/C=C/c1c(C)[nH]c(=O)[nH]c1=O [sparsomycin, reference compound]									1.7 (≈ 4.7 µM)	1.7 (≈ 4.7 µM)					
CCCCCC/C=C\CCCCCCCc1cc(O)cc(O)c1C(=O)Oc1cc(C)c(C(=O)O)c(O)c1 [4b, Capricostatin B]	> 100	> 200	12.5 (≈ 24.4 µM)		12.5 (≈ 24.4 µM)	0.05 (≈ 0.0975 µM)	1.6 (≈ 3.12 µM)								
CCCCCCCCCCCCCCCc1cc(O)cc(O)c1C(=O)O [1f, corticiolic acid]	> 100	> 200	3.1 (≈ 8.5 µM)		3.1 (≈ 8.5 µM)	25 (≈ 68.6 µM)	0.8 (≈ 2.19 µM)								
CCCCCC/C=C\CCCCCCCc1cc(O[C@@H]2O[C@H](CO)[C@H](O)[C@H](O)[C@H]2O)cc(O)c1C(=O)OC [4c, capricostatin C]	6.3 (≈ 11.7 µM)	> 200	> 100		> 100	6.3 (≈ 11.7 µM)	> 100								
CCCCCCCCCCCCCCCc1cc(O[C@@H]2O[C@H](CO)[C@H](O)[C@H](O)[C@H]2O)cc(O)c1C(=O)O [1d, Aquastatin D]	> 100	3.1 (≈ 5.89 µM)	6.3 (≈ 12 µM)		12.5 (≈ 23.7 µM)	> 50	3.1 (≈ 5.89 µM)				did not exhibit cytotoxicity	did not exhibit cytotoxicity			
CCCCCCCCCCCCCCCc1cc(O)cc(O)c1 [compound 6, adipostatin]	6.3 (≈ 19.7 µM)	> 200	25 (≈ 78 µM)		> 100	6.3 (≈ 19.7 µM)	> 100								
geministatin D													displayed antifungal activity		
CCCCCCCCCCCCCCCc1cc(O)cc(O)c1C(=O)Oc1cc(C)c(C(=O)O)c(O)c1 [1b, Aquastatin B]	> 100	> 200	> 50	do not demonstrate	> 100	> 50	1.6 (≈ 3.11 µM)							demonstrated antibacterial activity	
CCCCCCCCCCCCCc1cc(O)cc(O)c1C(=O)Oc1cc(C)c(C(=O)O)c(O)c1 [3b, Ariestatin B]	> 50	> 200	12.5 (≈ 25.7 µM)		12.5 (≈ 25.7 µM)	> 50	1.6 (≈ 3.29 µM)								
CCCCCCCCCCCCCCCc1cc(O)cc(O)c1C(=O)OC [1e, aquastatin E]	> 100	> 200	> 100		> 100	> 100	> 100								
CCCCCC/C=C\CCCCCCCc1cc(O)cc(O)c1C(=O)O [4f, Capricostatin F]	> 100	> 200	6.3 (≈ 17.4 µM)		6.3 (≈ 17.4 µM)	0.05 (≈ 0.138 µM)	0.8 (≈ 2.21 µM)								
CCCCCCCCCCCCCc1cc(O[C@@H]2O[C@H](CO)[C@H](O)[C@H](O)[C@H]2O)cc(O)c1C(=O)OC [3c, Ariestatin C]	> 100	> 200	> 100		> 100	0.2 (≈ 0.39 µM)	> 100				no activity was detected	cytotoxicity was observed			
CCCCCC/C=C\CCCCCCCc1cc(O[C@@H]2O[C@H](CO)[C@H](O)[C@H](O)[C@H]2O)cc(O)c1C(=O)O [4d, Capricostatin D]	> 100	3.1 (≈ 5.91 µM)	> 50		> 50	> 50	25 (≈ 47.7 µM)				did not exhibit cytotoxicity	did not exhibit cytotoxicity			
CCCCCCCCCCCCCc1cc(O[C@@H]2O[C@H](CO)[C@H](O)[C@H](O)[C@H]2O)cc(O)c1C(=O)Oc1cc(C)c(C(=O)O)c(O)c1 [3a, Ariestatin A]	> 100	> 200	6.3 (≈ 9.71 µM)		3.1 (≈ 4.78 µM)	> 100	1.6 (≈ 2.47 µM)								
CN(CC[C@H](N)CC(=O)N[C@@H]1C=C[C@@H](n2ccc(N)nc2=O)O[C@H]1C(=O)O)C(=N)N.Cl [blasticidin S HCl, reference compound]															3.1
CCCCCC/C=C\CCCCCCCc1cc(O[C@@H]2O[C@H](CO)[C@H](O)[C@H](O)[C@H]2O)cc(O)c1C(=O)Oc1cc(C)c(C(=O)O)c(O)c1 [4a, Capricostatin A]	> 100	> 200	6.3 (≈ 9.34 µM)		3.1 (≈ 4.59 µM)	> 100	1.6 (≈ 2.37 µM)								
CN(C)[C@@H]1C(O)=C(C(N)=O)C(=O)[C@@]2(O)C(O)=C3C(=O)c4c(O)cccc4[C@@](C)(O)[C@H]3C[C@@H]12 [tetracycline, reference compound]							6.3 (≈ 14.2 µM)								
Cc1cc(O)cc(O)c1C(=O)O [compound 5, orsellinic acid]	> 100	> 200	> 100		> 100	> 100	> 100								
CCCCCCCCCCCCCc1cc(O[C@@H]2O[C@H](CO)[C@H](O)[C@H](O)[C@H]2O)cc(O)c1C(=O)O [3d, Ariestatin D]	> 50	3.1 (≈ 6.22 µM)	> 50		> 50	> 50	25 (≈ 50.1 µM)				did not exhibit cytotoxicity	did not exhibit cytotoxicity			

Source: article PMC11514314, “The aquastatin biosynthetic gene cluster encodes a versatile polyketide synthase capable of synthesising heteromeric depsides with diverse alkyl side chains” (Chemical Science, 2024)
